From US9434763B2, “Derivatives of pyridinone as inhibitors for tissue transglutaminase” (ZEDIRA GMBH, priority 2012, dated 2016)

Experiments:
[1] = target: T1, His tagged recombinant human tissue transglutaminase (His6-rh-TG2) (Homo sapiens, UniProt P21980); assay: Inactivation of human tissue transglutaminase, fluorescence assay with Abz-APE(CAD-DNP)QEA-OH; assay type: biochemical; details: substrate Abz-APE(CAD-DNP)QEA-OH, 37° C., pH=7.5
T1 construct: purchased Zedira T002
T1 sequence (P21980 1-687): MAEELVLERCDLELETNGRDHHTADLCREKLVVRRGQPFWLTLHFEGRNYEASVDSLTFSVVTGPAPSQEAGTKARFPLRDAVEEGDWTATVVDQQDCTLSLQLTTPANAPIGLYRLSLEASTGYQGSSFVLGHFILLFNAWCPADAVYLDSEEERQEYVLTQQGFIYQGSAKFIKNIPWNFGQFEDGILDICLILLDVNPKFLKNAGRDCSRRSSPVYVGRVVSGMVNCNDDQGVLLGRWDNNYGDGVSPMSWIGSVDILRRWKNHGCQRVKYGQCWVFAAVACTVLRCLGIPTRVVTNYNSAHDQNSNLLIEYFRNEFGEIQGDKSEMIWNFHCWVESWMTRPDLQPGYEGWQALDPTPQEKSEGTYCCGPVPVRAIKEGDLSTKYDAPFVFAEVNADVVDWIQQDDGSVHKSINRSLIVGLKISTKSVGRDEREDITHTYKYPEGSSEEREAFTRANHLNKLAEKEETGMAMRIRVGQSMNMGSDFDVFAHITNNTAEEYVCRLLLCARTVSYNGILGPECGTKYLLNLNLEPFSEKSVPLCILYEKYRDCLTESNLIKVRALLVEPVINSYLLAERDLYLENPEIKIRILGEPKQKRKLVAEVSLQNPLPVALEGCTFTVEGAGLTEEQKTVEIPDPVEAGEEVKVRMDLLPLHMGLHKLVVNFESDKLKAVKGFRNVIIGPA
Summary of the method: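 His6-rh-TG2 (10 μg per assay) was preincubated 5 min at 37 °C with inhibitor in Tris/CaCl2/PEG8000/DTT/glycine methyl ester assay solution (50 μM Abz-APE(CAD-DNP)QEA-OH), pH 7.5, DMSO <0.2%. Fluorescence (ex 313/em 418 nm) read over 15–30 min and activity taken from the slope. IC50 from activity vs log inhibitor concentration.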

[2] = target: T2, FXIII (plasma transglutaminase, factor XIII) (Homo sapiens, UniProt P00488); assay: Comparative transglutaminase selectivity assay with casein and dansylcadaverine as substrates: FXIII; assay type: biochemical; details: casein as substrate
T2 construct: purchased Zedira T027
T2 sequence (P00488 1-732): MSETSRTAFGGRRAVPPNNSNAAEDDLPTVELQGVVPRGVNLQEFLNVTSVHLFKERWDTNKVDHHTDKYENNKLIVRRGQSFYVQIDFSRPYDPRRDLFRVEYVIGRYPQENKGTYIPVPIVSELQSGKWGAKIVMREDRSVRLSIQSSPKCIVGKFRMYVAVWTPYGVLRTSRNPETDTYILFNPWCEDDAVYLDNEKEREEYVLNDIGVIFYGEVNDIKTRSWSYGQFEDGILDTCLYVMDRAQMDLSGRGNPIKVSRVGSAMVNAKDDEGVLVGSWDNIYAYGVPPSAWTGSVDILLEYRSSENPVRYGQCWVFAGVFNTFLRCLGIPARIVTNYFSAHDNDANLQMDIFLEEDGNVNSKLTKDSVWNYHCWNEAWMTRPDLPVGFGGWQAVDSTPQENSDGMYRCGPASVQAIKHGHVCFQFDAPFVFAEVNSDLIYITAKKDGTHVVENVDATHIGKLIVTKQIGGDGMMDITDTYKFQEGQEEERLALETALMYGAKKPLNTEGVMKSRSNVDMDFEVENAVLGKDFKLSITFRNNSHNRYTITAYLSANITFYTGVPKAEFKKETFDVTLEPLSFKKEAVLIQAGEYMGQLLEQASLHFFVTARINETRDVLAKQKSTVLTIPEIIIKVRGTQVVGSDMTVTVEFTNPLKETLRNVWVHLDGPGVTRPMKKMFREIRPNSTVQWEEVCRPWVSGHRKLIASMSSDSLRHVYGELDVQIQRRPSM
Text: The comparative determination of different transglutaminases to determine the selectivity was made with casein and dansylcadaverine as substrates. Therefore, the kit T036 (Zedira, Darmstadt; Refs: Lorand et al, Anal Biochem, 1971, 44:221-31) as well as transglutaminase products T009 (transglutaminase 1), T012 (transglutaminase 3), T021 (transglutaminase 6) and T027 (plasma transglutaminase, factor XIII) are used. Therefore, two different IC50 values for the compounds are given.
The evaluation of the resulting enzyme activity is done using the slope of the straight line obtained by the increase in fluorescence.
To determine the non-inhibited enzyme activity, DMSO instead of inhibitor stock solution is used. IC50 values are determined by plotting the resulting enzyme activity against the logarithm of the inhibitor concentration. IC50 is defined as the concentration of inhibitor resulting in 50% of enzyme activity.
It should be noted that it was measured here against casein as substrate, which is why other apparent inhibition values (IC50 value) result.

SMILES | IC50 [1] [µM] | IC50 [2] [µM]
CCC(CC)CNC(=O)Cn1cccc(NC(=O)[C@H](CC/C=C/C(=O)OC)NC(=O)c2cncn2C)c1=O [A63, (S,E)-Methyl 7-(1-(2-(2-ethylbutylamino)-2-oxoethyl)-2-oxo-1,2-dihydropyridin-3-ylamino)-6-(1-methyl-1H-imidazole-5-carboxamido)-7-oxohept-2-enoate] | 0.045 | 89
CCOC(=O)/C=C/CC[C@H](NC(=O)c1cncn1C)C(=O)Nc1cccn(CC(=O)NCCC(C)C)c1=O [A19, (S,E)-Ethyl 7-(1-(2-(isopentylamino)-2-oxoethyl)-2-oxo-1,2-dihydropyridin-3-ylamino)-6-(1-methyl-1H-imidazole-5-carboxamido)-7-oxohept-2-enoate] | 0.08 | 81.1
CCOC(=O)/C=C/CC[C@H](NC(=O)c1ccccc1)C(=O)Nc1cccn(CC(=O)N[C@H](C(=O)O)[C@H](C)CC)c1=O [A59, (2S,3R)-2-(2-(3-((S,E)-2-Benzamido-7-ethoxy-7-oxohept-5-enamido)-2-oxopyridin-1(2H)-yl)acetamido)-3-methylpentanoic acid] | 0.043 | 79.6
CCOC(=O)/C=C/CC[C@H](NC(=O)CCC(=O)O)C(=O)Nc1cccn(CC(=O)NCC(CC)CC)c1=O [A30, (S,E)-4-(7-Ethoxy-1-(1-(2-(2-ethylbutylamino)-2-oxoethyl)-2-oxo-1,2-dihydropyridin-3-ylamino)-1,7-dioxohept-5-en-2-ylamino)-4-oxobutanoic acid] | 0.116 | 90.9
COC(=O)/C=C/CC[C@H](NC(C)=O)C(=O)Nc1cccn(CC(=O)N2CCC(C(F)(F)F)CC2)c1=O [A65, (S,E)-Methyl 6-acetamido-7-oxo-7-(2-oxo-1-(2-oxo-2-(4-(trifluoromethyl)piperidin-1-yl)ethyl)-1,2-dihydropyridin-3-ylamino)hept-2-enoate] | 0.132 | 156
CCOC(=O)/C=C/CC[C@H](NC(C)=O)C(=O)Nc1cccn(CC(=O)NCC(CC)CC)c1=O [A62, (S,E)-Ethyl 6-acetamido-7-(1-(2-(2-ethylbutylamino)-2-oxoethyl)-2-oxo-1,2-dihydropyridin-3-ylamino)-7-oxohept-2-enoate] | 0.093 | 122
CCOC(=O)/C=C/CC[C@H](NC(C)=O)C(=O)Nc1cccn(CC(=O)NCCC(C)C)c1=O [A7, (S,E)-Ethyl 6-acetamido-7-(1-(2-(isopentylamino)-2-oxoethyl)-2-oxo-1,2-dihydropyridin-3-ylamino)-7-oxohept-2-enoate] | – | 105
CCOC(=O)/C=C/CC[C@H](NC(=O)CCC(=O)O)C(=O)Nc1cccn(CC(=O)NCCC(C)C)c1=O [A24, (S,E)-4-(7-Ethoxy-1-(1-(2-(isopentylamino)-2-oxoethyl)-2-oxo-1,2-dihydropyridin-3-ylamino)-1,7-dioxohept-5-en-2-ylamino)-4-oxobutanoic acid] | 0.173 | 133
COC(=O)/C=C/CC[C@H](NC(C)=O)C(=O)Nc1cccn(CC(=O)N2CCCC(C)C2)c1=O (stereo partly drawn) [A64, (6S,E)-Methyl 6-acetamido-7-(1-(2-(3-methylpipendin-1-yl)-2-oxoethyl)-2-oxo-1,2-dihydropyridin-3-ylamino)-7-oxohept-2-enoate] | 0.141 | 120
CCOC(=O)/C=C/CC[C@H](NC(=O)c1cncn1C)C(=O)Nc1cccn(CC(=O)NCC(CC)CC)c1=O [A58, (S,E)-Ethyl 7-(1-(2-(2-ethylbutylamino)-2-oxoethyl)-2-oxo-1,2-dihydropyridin-3-ylamino)-6-(1-methyl-1H-imidazole-5-carboxamido)-7-oxohept-2-enoate] | – | 120
CCOC(=O)/C=C/CC[C@H](NC(C)=O)C(=O)Nc1cccn(CC(=O)NCCC(CC)CC)c1=O [A42, (S,E)-ethyl 6-acetamido-7-(1-(2-(3-ethylpentylamino)-2-oxoethyl)-2-oxo-1,2-dihydropyridin-3-ylamino)-7-oxohept-2-enoate] | 0.147 | 109

Continued by falling IC50 [2], values first:

IC50 [1] [µM] | IC50 [2] [µM] | SMILES
0.034 | 78.2 | CCC(CC)CNC(=O)Cn1cccc(NC(=O)[C@H](CC/C=C/C(=O)OC)NC(C)=O)c1=O [A79, (S,E)-Methyl 6-acetamido-7-(1-(2-(2-ethylbutylamino)-2-oxoethyl)-2-oxo-1,2-dihydropyridin-3-ylamino)-7-oxohept-2-enoate]
0.06 | 77.7 | CCOC(=O)/C=C/CC[C@H](NC(=O)c1cncn1C)C(=O)Nc1cccn(CC(=O)N[C@H](C(=O)O)[C@H](C)CC)c1=O [A53, (2S,3R)-2-(2-(3-((S,E)-7-Ethoxy-2-(1-methyl-1H-imidazole-5-carboxamido)-7-oxohept-5-enamido)-2-oxopyridin-1(2H)-yl)acetamido)-3-methylpentanoic acid]
0.054 | 73.2 | CC[C@@H](C)[C@H](NC(=O)Cn1cccc(NC(=O)[C@H](CC/C=C/C(=O)OC)NC(=O)c2cncn2C)c1=O)C(=O)O [A60, (2S,3R)-2-(2-(3-((S,E)-7-Methoxy-2-(1-methyl-1H-imidazole-5-carboxamido)-7-oxohept-5-enamido)-2-oxopyridin-1(2H)-yl)acetamido)-3-methylpentanoic acid]
0.055 | 70.7 | CCOC(=O)/C=C/CC[C@H](NC(C)=O)C(=O)Nc1cccn(CC(=O)N[C@H](C(=O)OC)[C@H](C)CC)c1=O [A35, (S,E)-ethyl 6-acetamido-7-(1-(2-((2S,3R)-1-methoxy-3-methyl-1-oxopentan-2-ylamino)-2-oxoethyl)-2-oxo-1,2-dihydropyridin-3-ylamino)-7-oxohept-2-enoate]
– | 67.4 | COC(=O)/C=C/CC[C@H](NC(C)=O)C(=O)Nc1cccn(CC(=O)NCCC(C)C)c1=O [A29, (S,E)-methyl 6-acetamido-7-(1-(2-(isopentylamino)-2-oxoethyl)-2-oxo-1,2-dihydropyridin-3-ylamino)-7-oxohept-2-enoate]
– | 63.4 | CC[C@@H](C)[C@H](NC(=O)Cn1cccc(NC(=O)[C@H](CC/C=C/C(=O)OC)NC(=O)c2ccccc2)c1=O)C(=O)O [A61, (2S,3R)-2-(2-(3-((S,E)-2-benzamido-7-methoxy-7-oxohept-5-enamido)-2-oxopyridin-1(2H)-yl)acetamido)-3-methylpentanoic acid]
